These results are taken from patent publication US7575910B2, “Method for producing L-fuculose and method for producing L-fucose” (priority 2004, dated 2009).

One series concerns the target FcDH (Gluconobacter thailandicus, UniProt A0ABQ0IZX0). The experiment in a line: Bivalent metal ion specificity of FcDH. It is filed as biochemical, Gluconobacter oxydans IFO 3255.
A further series deals with NOX (NADH oxidase) (Gluconobacter thailandicus, UniProt A0ABQ0IUG6). The experiment in a line: NOX activity: NADH/NADPH and flavin coenzyme specificity. It is filed as biochemical, Gluconobacter oxydans IFO 3255. As to conditions: for NOX activation effect of flavin coenzyme: flavin 0 to 300 μM, FIG. 19. The protocol: (§1) The change in absorbance in the first minute was taken as an initial rate, and the activity was calculated therefrom. The experimental group without the enzyme source was used as a blank. […] The measurement was taken three consecutive times. Their mean value was taken and is shown in the figure with the standard deviation.
The concentration of flavin in the reaction solution was 0 to 300 μM, and the others were adjusted to standard conditions.
The Km value for the substrate was calculated by measuring the activity with a variety of substrate concentrations and drawing a Lineweaver-Burk plot of the results.

In series [1] the target is T1, FcDH (L-fuculose-producing L-fucitol dehydrogenase) (Gluconobacter thailandicus, UniProt A0ABQ0IZX0).
T1 sequence (A0ABQ0IZX0 1-257): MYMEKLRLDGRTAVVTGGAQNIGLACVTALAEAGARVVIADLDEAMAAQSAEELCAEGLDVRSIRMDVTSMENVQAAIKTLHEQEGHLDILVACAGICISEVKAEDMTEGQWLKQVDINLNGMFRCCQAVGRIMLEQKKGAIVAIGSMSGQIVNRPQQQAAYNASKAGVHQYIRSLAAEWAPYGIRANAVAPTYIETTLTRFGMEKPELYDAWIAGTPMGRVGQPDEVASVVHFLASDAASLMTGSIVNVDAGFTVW
Kind of series: Substrate specificity of purified FcDH (kcat, Km by Lineweaver-Burk plot). It is filed as biochemical, Gluconobacter oxydans IFO 3255. As to conditions: substrate, Lineweaver-Burk plot. The protocol: The measurement was started when NAD was added. […] The measurement was performed consecutively three times.
Values of kcat and Km for each substrate were obtained by measuring the initial rate of the reaction with various substrate concentrations and drawing a Lineweaver-Burk plot of the results.
Lineweaver-Burk plots of the results in (A) and (B) are shown in FIG. 12 (C) and (D), respectively. The Km and kcat values were calculated from the range in which substrate inhibition was not observed, i.e., from a straight line represented by a broken line in FIG. 12 (C) and (D).

The procedure of series [2]: The measurement was started when NAD was added. The change in absorbance in the first minute was taken as the initial rate, and the activity was calculated therefrom. […] The measurement was performed consecutively three times. Their mean value was taken and is shown in the figure with the standard deviation.
As pH buffers, sodium acetate buffer (pH 4.8, 5.7), potassium phosphate buffer (pH 6.4, 7.2), Tris-HCl buffer (pH 6.7, 7.6, 8.5), CAPS-NaOH buffer (Sodium cyclohexylaminopropanesulfonate) (pH 8.3, 9.5) and sodium carbonate buffer (pH 10.1, 10.7, 11.2) were used.
A solution containing 0.1M pH buffer and 80 μg/ml purified FcDH was left to stand on ice for 30 minutes, and subsequently the solution was diluted to a final FcDH concentration of 1.6 μg/ml. The reaction was performed under standard conditions, and the remaining FcDH activity was measured.
A solution containing Gly-NaOH (pH 9.5), MgCl2, fucitol, and purified FcDH was preincubated at each temperature (25, 30, 37, 45, 55, or 65° C.) for 3 minutes, and then NAD that had been separately preincubated at each temperature was added thereto to start the reaction. The final concentrations in the reaction solution were adjusted to the standard conditions for activity measurement, and the final concentration of FcDH was 1.6 μg/ml.
A solution containing Gly-NaOH (pH 9.5) and 80 μg/ml purified FcDH was left to stand at 0, 25, 30, 37, 50 or 60° C. for 30 minutes. The solution was then diluted so that the final concentration of FcDH was 1.6 μg/ml. The reaction was performed under standard conditions, and the remaining FcDH activity was measured. The remaining activity of FcDH measured at each temperature is reported (FIG. 11) as the relative percentage as compared to the remaining activity when left to stand at 0° C.
(§2) The activity of the purified preparations of rFcDH and rNOX that had been purified as described above was also measured.

How the values of series [3] were obtained: as §1
As pH buffers, sodium citrate buffer (pH 3.6, 4.7, 5.7), sodium acetate buffer (pH 4.8, 5.7), potassium phosphate buffer (pH 6.4, 7.2), Tris-HCl buffer (pH 6.7, 7.6, 8.5), and CAPS-NaOH buffer (pH 8.3, 9.5) were used.
as §2
This is another data set of the same source.

[4] abbreviates: 5 mM bivalent metal ion or EDTA.
The mark [5] stands for this setting: 5 mM bivalent metal ion or EDTA, relative to specific activity with MnCl2.

Where two headings read alike, the source gives them in different places.

`[Ca+2].[Cl-].[Cl-]` [CaCl2]: the “effect on FcDH activity” value at FcDH (setting [4]) is recorded as “activation effect”. Also, the “RELATIVE ACTIVITY (%)” value on FcDH (setting [5]) is reported as 89.9 ± 3.4%.
For the molecule `[Cl-].[Cl-].[Co+2]` [CoCl2], at FcDH, the “RELATIVE ACTIVITY (%)” value was determined as 34.8 ± 1.1% and the “effect on FcDH activity” value is reported as “no effect”.
With `[Cl][Cu][Cl]` [CuCl2], the “effect on FcDH activity” value on FcDH (setting [4]) is listed as “inhibitory effect”. Besides, the “RELATIVE ACTIVITY (%)” value at FcDH (setting [5]) is 5.0 ± 0.5%.
Turning to `Cc1cc2nc3c(=O)[nH]c(=O)nc-3n(C[C@H](O)[C@H](O)[C@H](O)COP(=O)(O)O)c2cc1C` [FMN], the “NOX activation effect of flavin coenzyme” value on NOX (NADH oxidase) is on record as “relatively weaker”.
Take `OCC(O)CO` [GLYCEROL, glycerol]: in series [1], the Kcat stood at 0.9 U · mg−1 and the Michaelis constant (Km) is 10.1 mM.
Take `[Cl-].[Cl-].[Mg+2]` [MgCl2]: on FcDH (setting [4]), the “effect on FcDH activity” value is on record as “activation effect”. In addition, at FcDH (setting [5]), the “RELATIVE ACTIVITY (%)” value turned out to be 93.7 ± 2.9%.
The matching figures for `[Cl][Mn][Cl]` [MnCl2]: “activation effect” and 100.0 ± 6.9%.
Consider `NC(=O)C1=CN([C@@H]2O[C@H](COP(=O)(O)OP(=O)(O)OC[C@H]3O[C@@H](n4cnc5c(N)ncnc54)[C@H](OP(=O)(O)O)[C@@H]3O)[C@@H](O)[C@H]2O)C=CC1` [NADPH], for which, at NOX (NADH oxidase) (data not shown), the “NOX activity with NADPH as the substrate” value is “no significant activity”.
Regarding `[Cl][Ni][Cl]` [NiCl2], at FcDH (setting [4]), the “effect on FcDH activity” value is given as “no effect”. In addition, the “RELATIVE ACTIVITY (%)” value at FcDH (setting [5]) is listed as 42.4 ± 0.7%.
The matching figures for `O=S(=O)([O-])[O-].[Zn+2]` [ZnSO4]: “inhibitory effect” and 11.7 ± 0.5%.
On to `Cc1cc2nc3c(=O)[nH]c(=O)nc-3n(C[C@H](O)[C@H](O)[C@H](O)CO)c2cc1C` [riboflavin], for which the “NOX activation effect of flavin coenzyme” value on NOX (NADH oxidase) is listed as “NOX activation effect was observed”.

B1: FcDH: L-fuculose-producing L-fucitol dehydrogenase purified from G. oxydans IFO 3255, SEQ ID NO:16 (protein)
chain: T1 sequence (A0ABQ0IZX0 1-257)
modifications: Gluconobacter oxydans
B1: the “remaining activity (temperature stability)” value in series [2] (0.5 h) is at least 80%. Besides, the “pH of maximum specific activity” value in series [2] (FIG. 8, 30° C.) is 9.5. Moreover, the “temperature of maximum specific activity” value in series [2] (FIG. 10, pH 9.5) came out at 37 °C. The “remaining activity (pH stability)” value in series [2] (buffer, 0.5 h, pH 7.2) was at least 80%. In series [2] (purified preparation, 10 mM L-fucitol, 1 mM NAD, pH 9.5, 30° C.), the “specific activity of FcDH” value was found to be 7.8 U/mg.

B2: NOX: NADH oxidase purified from G. oxydans IFO 3255, SEQ ID NO:18 (protein)
chain: MTILNEQDFRRAMSHFATGVAVVTAKGSEGEQGATISALTSVSLDPLLLLICLHRGSSTYKAIAEAGRFGLSILNNSHKDVAMLFASRTADKFGSDVVVRAEDGTAFIDGALVQMHCELVETFQGGTHALFMARPTSITVRDEAPLLYFQGQLGVEA
modifications: Gluconobacter oxydans
As to B2, the “remaining activity (temperature stability)” value in series [3] (0.5 h) was at least 80%. The “pH of maximum specific activity” value in series [3] (FIG. 15, 30° C.) amounted to 5.7. The “temperature of maximum specific activity” value in series [3] (FIG. 17, pH 8.0) is 37 °C. The “remaining activity (pH stability)” value in series [3] (buffer, 0.5 h, pH 8.8) is given as at least 80%. Further, the “specific activity of NOX” value in series [3] (purified preparation, 0.2 mM NADH, 30 μM FAD, pH 8.0, 30° C.) was determined as 196 U/mg.
